# According to PubChem BioAssay (NCI):
#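 Step 1: Grow cells in 96-well plates. Step 2: Expose to compound for 48 hours at 5 concentrations. Step 3: Interpolate endpoints linearly; if unreached, use highest concentration. The concentration for 50% growth inhibition is given as GI50. TGI is the concentration that stops growth completely.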
# What was measured:
# Assay in all cases: growth of human tumour cells (NCI), 48 h
# SK-MEL-28 melanoma = system: SK-MEL-28 melanoma
# UACC-62 melanoma = system: UACC-62 melanoma
# M14 melanoma = system: M14 melanoma
# BT-549 breast = system: BT-549 breast
# OVCAR-3 ovarian = system: OVCAR-3 ovarian
# SF-295 CNS = system: SF-295 CNS
# SNB-19 CNS = system: SNB-19 CNS
# NCI-H460 lung = system: NCI-H460 lung
# NCI-H226 lung = system: NCI-H226 lung
# NCI-H23 lung = system: NCI-H23 lung
# HS 578T breast = system: HS 578T breast
# SN12C renal = system: SN12C renal
# T-47D breast = system: T-47D breast
# MOLT-4 leukemia = system: MOLT-4 leukemia
# CCRF-CEM leukemia = system: CCRF-CEM leukemia
# HCC-2998 colon = system: HCC-2998 colon
# SK-MEL-2 melanoma = system: SK-MEL-2 melanoma
# UO-31 renal = system: UO-31 renal
# UACC-257 melanoma = system: UACC-257 melanoma
# EKVX NSCLC = system: EKVX NSCLC
# NCI/ADR-RES ovarian = system: NCI/ADR-RES ovarian
# HCT-116 colon = system: HCT-116 colon
# MDA-MB-435 = system: MDA-MB-435
# OVCAR-8 ovarian = system: OVCAR-8 ovarian
# PC-3 prostate = system: PC-3 prostate
# SR leukemia = system: SR leukemia
# 786-0 renal = system: 786-0 renal
# HT29 colon = system: HT29 colon
# LOX IMVI melanoma = system: LOX IMVI melanoma
# IGROV1 ovarian = system: IGROV1 ovarian
# HL-60(TB) leukemia = system: HL-60(TB) leukemia
# RPMI-8226 leukemia = system: RPMI-8226 leukemia
# MCF7 breast = system: MCF7 breast
# U251 CNS = system: U251 CNS
# RXF 393 renal = system: RXF 393 renal
# SF-268 CNS = system: SF-268 CNS
# SW-620 colon = system: SW-620 colon
# OVCAR-4 ovarian = system: OVCAR-4 ovarian
# SK-OV-3 ovarian = system: SK-OV-3 ovarian
# SNB-75 CNS = system: SNB-75 CNS
# K-562 leukemia = system: K-562 leukemia
# MDA-MB-231 breast = system: MDA-MB-231 breast
# SK-MEL-5 melanoma = system: SK-MEL-5 melanoma
# KM12 colon = system: KM12 colon
# TK-10 renal = system: TK-10 renal
# CAKI-1 renal = system: CAKI-1 renal
# NCI-H522 lung = system: NCI-H522 lung
# HOP-62 NSCLC = system: HOP-62 NSCLC
# A498 renal = system: A498 renal
# DU-145 prostate = system: DU-145 prostate
# COLO 205 colon = system: COLO 205 colon
# OVCAR-5 ovarian = system: OVCAR-5 ovarian
# HOP-92 NSCLC = system: HOP-92 NSCLC
# SF-539 CNS = system: SF-539 CNS
# HCT-15 colon = system: HCT-15 colon
# A549 NSCLC = system: A549 NSCLC
# ACHN renal = system: ACHN renal
# MALME-3M melanoma = system: MALME-3M melanoma
smiles,measurement,setting,value
CC1CN1C1=CC(=O)c2c(c(CO)cn2C)C1=O (stereo not given),GI50,SK-MEL-28 melanoma,491 nM
same,GI50,UACC-62 melanoma,144 nM
same,TGI,UACC-62 melanoma,0.431 µM
same,GI50,M14 melanoma,13.9 nM
same,TGI,M14 melanoma,0.127 µM
same,GI50,BT-549 breast,293 nM
same,TGI,BT-549 breast,1.57 µM
same,GI50,OVCAR-3 ovarian,254 nM
same,TGI,OVCAR-3 ovarian,1.11 µM
same,GI50,SF-295 CNS,76 nM
same,TGI,SF-295 CNS,0.566 µM
same,GI50,SNB-19 CNS,247 nM
same,TGI,SNB-19 CNS,3.74 µM
same,TGI,NCI-H460 lung,0.651 µM
same,GI50,NCI-H226 lung,324 nM
same,TGI,NCI-H226 lung,2.1 µM
same,TGI,NCI-H23 lung,0.0265 µM
same,GI50,HS 578T breast,689 nM
same,GI50,SN12C renal,70.6 nM
same,TGI,SN12C renal,1.28 µM
same,GI50,T-47D breast,8.34 µM
same,TGI,T-47D breast,> 34.6 µM
same,GI50,MOLT-4 leukemia,5.43 µM
same,TGI,MOLT-4 leukemia,> 100 µM
same,GI50,CCRF-CEM leukemia,3.35 µM
same,TGI,CCRF-CEM leukemia,62.8 µM
same,GI50,HCC-2998 colon,105 nM
same,TGI,HCC-2998 colon,415 nM
same,GI50,SK-MEL-2 melanoma,300 nM
same,TGI,SK-MEL-2 melanoma,3.32 µM
same,GI50,UO-31 renal,124 nM
same,TGI,UO-31 renal,0.386 µM
same,GI50,UACC-257 melanoma,925 nM
same,TGI,UACC-257 melanoma,3.65 µM
same,GI50,EKVX NSCLC,3.09 µM
same,TGI,EKVX NSCLC,17 µM
same,GI50,NCI/ADR-RES ovarian,84.8 nM
same,TGI,NCI/ADR-RES ovarian,0.926 µM
same,GI50,HCT-116 colon,137 nM
same,TGI,HCT-116 colon,1.03 µM
same,GI50,MDA-MB-435,311 nM
same,TGI,MDA-MB-435,1.32 µM
same,GI50,OVCAR-8 ovarian,628 nM
same,TGI,OVCAR-8 ovarian,> 20.5 µM
same,GI50,PC-3 prostate,313 nM
same,TGI,PC-3 prostate,3.3 µM
same,GI50,SR leukemia,11.2 nM
same,TGI,SR leukemia,0.069 µM
same,GI50,786-0 renal,232 nM
same,TGI,786-0 renal,2.52 µM
same,GI50,HT29 colon,220 nM
same,GI50,LOX IMVI melanoma,66 nM
same,TGI,LOX IMVI melanoma,0.387 µM
same,GI50,IGROV1 ovarian,306 nM
same,TGI,IGROV1 ovarian,5.15 µM
same,GI50,HL-60(TB) leukemia,22.9 µM
same,TGI,HL-60(TB) leukemia,75.2 µM
same,GI50,RPMI-8226 leukemia,241 nM
same,TGI,RPMI-8226 leukemia,3.32 µM
same,GI50,MCF7 breast,63.4 nM
same,GI50,U251 CNS,152 nM
same,TGI,U251 CNS,0.835 µM
same,GI50,RXF 393 renal,861 nM
same,GI50,SF-268 CNS,257 nM
same,TGI,SF-268 CNS,5.28 µM
same,GI50,SW-620 colon,105 nM
same,TGI,SW-620 colon,1.02 µM
same,GI50,OVCAR-4 ovarian,1660 nM
same,TGI,OVCAR-4 ovarian,6.34 µM
same,GI50,SK-OV-3 ovarian,509 nM
same,TGI,SK-OV-3 ovarian,23.2 µM
same,GI50,SNB-75 CNS,438 nM
same,TGI,SNB-75 CNS,2.65 µM
same,GI50,K-562 leukemia,833 nM
same,TGI,K-562 leukemia,64.5 µM
same,GI50,MDA-MB-231 breast,20 µM
same,TGI,MDA-MB-231 breast,46.2 µM
same,GI50,SK-MEL-5 melanoma,57.7 nM
same,TGI,SK-MEL-5 melanoma,0.191 µM
same,GI50,KM12 colon,261 nM
same,TGI,KM12 colon,1.38 µM
same,GI50,TK-10 renal,261 nM
same,TGI,TK-10 renal,1.49 µM
same,GI50,CAKI-1 renal,18 nM
same,TGI,CAKI-1 renal,0.293 µM
same,GI50,NCI-H522 lung,200 nM
same,TGI,NCI-H522 lung,1.98 µM
same,GI50,HOP-62 NSCLC,62 nM
same,TGI,HOP-62 NSCLC,0.386 µM
same,GI50,A498 renal,358 nM
same,TGI,A498 renal,1.76 µM
same,GI50,DU-145 prostate,< 11.2 nM
same,TGI,DU-145 prostate,0.234 µM
same,GI50,COLO 205 colon,171 nM
same,GI50,OVCAR-5 ovarian,1550 nM
same,TGI,OVCAR-5 ovarian,14.8 µM
same,GI50,HOP-92 NSCLC,9.92 µM
same,TGI,HOP-92 NSCLC,35.6 µM
same,GI50,SF-539 CNS,31.3 nM
same,TGI,SF-539 CNS,0.23 µM
same,GI50,HCT-15 colon,65.1 nM
same,TGI,HCT-15 colon,0.649 µM
same,GI50,A549 NSCLC,62.3 nM
same,TGI,A549 NSCLC,3.18 µM
Oc1ccc(N=Cc2ccc(C=Nc3ccc(O)cc3)cc2)cc1,TGI,SK-MEL-28 melanoma,37.3 µM
same,TGI,UACC-62 melanoma,25.5 µM
same,TGI,M14 melanoma,34.5 µM
same,TGI,BT-549 breast,33.8 µM
same,TGI,OVCAR-3 ovarian,32.6 µM
same,TGI,SF-295 CNS,32.3 µM
same,TGI,SNB-19 CNS,31.6 µM
same,TGI,NCI-H460 lung,72.7 µM
same,TGI,NCI-H226 lung,29.5 µM
same,TGI,NCI-H23 lung,34.8 µM
same,TGI,HS 578T breast,60.1 µM
same,TGI,SN12C renal,28.5 µM
same,TGI,T-47D breast,> 100 µM
same,TGI,MOLT-4 leukemia,20 µM
same,TGI,CCRF-CEM leukemia,30.7 µM
same,TGI,SK-MEL-2 melanoma,49.9 µM
same,TGI,UO-31 renal,34 µM
same,TGI,UACC-257 melanoma,32.4 µM
same,TGI,EKVX NSCLC,83.6 µM
same,TGI,NCI/ADR-RES ovarian,34.2 µM
same,TGI,HCT-116 colon,36.8 µM
same,TGI,MDA-MB-435,32.7 µM
same,TGI,OVCAR-8 ovarian,29.3 µM
same,TGI,PC-3 prostate,33 µM
same,TGI,SR leukemia,25.9 µM
same,TGI,ACHN renal,26 µM
same,TGI,786-0 renal,31.4 µM
same,TGI,HT29 colon,89.4 µM
same,TGI,LOX IMVI melanoma,41.4 µM
same,TGI,IGROV1 ovarian,39 µM
same,TGI,RPMI-8226 leukemia,81.6 µM
same,TGI,MALME-3M melanoma,34.4 µM
same,TGI,MCF7 breast,> 100 µM
same,TGI,U251 CNS,27.6 µM
same,TGI,RXF 393 renal,34.9 µM
same,TGI,SF-268 CNS,30.8 µM
same,TGI,SW-620 colon,45.8 µM
same,TGI,OVCAR-4 ovarian,29.6 µM
same,TGI,SK-OV-3 ovarian,32.4 µM
same,TGI,SNB-75 CNS,41.5 µM
same,TGI,K-562 leukemia,40.4 µM
same,TGI,MDA-MB-231 breast,27.7 µM
same,TGI,SK-MEL-5 melanoma,29.8 µM
same,TGI,KM12 colon,33.3 µM
same,TGI,TK-10 renal,34 µM
same,TGI,CAKI-1 renal,35.1 µM
same,TGI,NCI-H522 lung,59.9 µM
same,TGI,HOP-62 NSCLC,37.1 µM
same,TGI,A498 renal,94.2 µM
same,TGI,DU-145 prostate,32.4 µM
same,TGI,COLO 205 colon,39.2 µM
same,TGI,OVCAR-5 ovarian,38.7 µM
same,TGI,HOP-92 NSCLC,62.7 µM
same,TGI,SF-539 CNS,28.6 µM
same,TGI,HCT-15 colon,29.1 µM
same,TGI,A549 NSCLC,38.4 µM
